Data taken from article PMC3237899 (2011).

What was measured:
Jak2-V617F = Jak2-V617F (Homo sapiens, UniProt O60674, V617F); experiment: in vitro kinase assay with recombinant protein, autophosphorylation; assay type: biochemical
Jak2 wild type = Jak2 wild type (Homo sapiens, UniProt O60674); experiment: as above; assay type: biochemical
Jak2 wild type, sequence (O60674 whole entry): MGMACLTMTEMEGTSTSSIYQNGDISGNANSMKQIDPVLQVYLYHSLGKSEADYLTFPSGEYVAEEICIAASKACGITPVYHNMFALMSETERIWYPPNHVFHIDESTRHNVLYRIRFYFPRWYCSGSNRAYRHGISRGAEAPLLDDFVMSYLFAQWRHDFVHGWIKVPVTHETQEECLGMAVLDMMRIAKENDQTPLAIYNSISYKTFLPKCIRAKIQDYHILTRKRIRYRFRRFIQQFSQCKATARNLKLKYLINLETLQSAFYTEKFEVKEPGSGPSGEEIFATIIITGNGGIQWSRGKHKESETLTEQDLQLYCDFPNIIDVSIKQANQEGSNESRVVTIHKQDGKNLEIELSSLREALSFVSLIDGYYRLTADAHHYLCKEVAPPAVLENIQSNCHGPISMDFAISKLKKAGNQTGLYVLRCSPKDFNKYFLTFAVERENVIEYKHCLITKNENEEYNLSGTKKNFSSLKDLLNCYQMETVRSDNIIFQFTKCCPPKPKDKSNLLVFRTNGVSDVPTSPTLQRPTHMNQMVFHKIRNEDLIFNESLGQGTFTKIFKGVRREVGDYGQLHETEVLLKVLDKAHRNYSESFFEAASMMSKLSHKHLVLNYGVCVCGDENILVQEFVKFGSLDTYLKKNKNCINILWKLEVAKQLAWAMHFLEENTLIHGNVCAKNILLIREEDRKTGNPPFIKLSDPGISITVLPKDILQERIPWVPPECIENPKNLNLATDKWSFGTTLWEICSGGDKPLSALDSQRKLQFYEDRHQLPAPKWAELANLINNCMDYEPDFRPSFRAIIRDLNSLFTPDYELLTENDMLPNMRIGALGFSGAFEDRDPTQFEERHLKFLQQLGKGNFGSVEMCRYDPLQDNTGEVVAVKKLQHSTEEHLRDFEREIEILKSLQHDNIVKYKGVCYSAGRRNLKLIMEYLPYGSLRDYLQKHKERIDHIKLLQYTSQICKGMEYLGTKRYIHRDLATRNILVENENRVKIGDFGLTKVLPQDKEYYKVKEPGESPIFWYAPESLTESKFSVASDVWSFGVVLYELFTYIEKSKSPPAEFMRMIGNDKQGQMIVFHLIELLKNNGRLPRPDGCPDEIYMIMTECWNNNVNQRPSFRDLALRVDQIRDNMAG

Jak2-V617F, sequence (O60674 545-1132 V617F limits assumed): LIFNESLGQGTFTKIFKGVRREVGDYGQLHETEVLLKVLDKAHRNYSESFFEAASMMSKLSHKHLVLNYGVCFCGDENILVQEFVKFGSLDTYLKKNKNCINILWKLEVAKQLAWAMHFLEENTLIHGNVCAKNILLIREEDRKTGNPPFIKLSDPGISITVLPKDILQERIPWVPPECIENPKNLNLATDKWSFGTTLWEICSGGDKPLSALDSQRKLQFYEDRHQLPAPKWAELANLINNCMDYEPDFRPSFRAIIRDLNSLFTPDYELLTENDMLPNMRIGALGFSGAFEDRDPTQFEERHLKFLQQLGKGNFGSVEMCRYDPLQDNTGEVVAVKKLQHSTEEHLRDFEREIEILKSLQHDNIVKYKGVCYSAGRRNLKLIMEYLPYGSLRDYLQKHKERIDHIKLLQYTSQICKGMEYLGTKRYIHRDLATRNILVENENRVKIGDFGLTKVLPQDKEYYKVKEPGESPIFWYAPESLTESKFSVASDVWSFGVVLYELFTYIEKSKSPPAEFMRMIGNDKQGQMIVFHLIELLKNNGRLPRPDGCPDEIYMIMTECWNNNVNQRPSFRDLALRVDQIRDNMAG

- IC50 (Jak2-V617F): ~100 nM
- IC50 (Jak2 wild type): ~1000 nM
Structure (SMILES): CN(C)c1ccc(C(O)c2cc3ccccc3s2)cc1 (centres unmarked) [A46, 1-benzothiophen-2-yl-(4-dimethylaminophenyl)methanol]
